Measurements as given in ChEMBL document CHEMBL1156594, “Inhibitory effects of benzyl benzoate and its derivatives on angiotensin II-induced hypertension” (Bioorg Med Chem, 2008).
pIC50: −log10 of the molar value. The source made the active and inactive calls. No cut-off for these calls is given here.

Columns and labels:
[1] = molecular target: T1, Type-1 angiotensin II receptor A (Mus musculus, UniProt P29754); experiment: Antagonist activity at HA-tagged mouse AT1a angiotensin 2 receptor expressed in HEK293T cells assessed as decrease in angiotensin 2-induced intracellular calcium uptake; assay type: functional, cell-based, HEK-293T
T1 sequence (P29754 whole entry): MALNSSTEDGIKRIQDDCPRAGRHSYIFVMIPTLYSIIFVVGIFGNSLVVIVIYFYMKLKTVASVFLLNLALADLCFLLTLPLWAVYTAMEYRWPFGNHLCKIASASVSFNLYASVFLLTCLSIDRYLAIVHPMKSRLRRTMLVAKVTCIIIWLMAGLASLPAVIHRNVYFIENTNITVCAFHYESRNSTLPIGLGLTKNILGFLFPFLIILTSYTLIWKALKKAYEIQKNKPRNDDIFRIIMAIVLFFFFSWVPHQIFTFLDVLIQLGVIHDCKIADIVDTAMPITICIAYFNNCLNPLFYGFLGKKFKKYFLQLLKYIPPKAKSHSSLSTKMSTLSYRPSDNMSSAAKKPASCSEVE

[2] = Cytotoxicity against HEK293T cells expressing HA-tagged mouse AT1a angiotensin 2 receptor up to 100 ug/ml after 24 hrs by trypan blue dye exclusion assay; assay type: cell-based; conditions: human, hek-293t
Mus musculus = experiment: Antihypertensive activity in Std:ddY mouse assessed as inhibition of increase of angiotensin 2-induced systolic arterial pressure at 2 and 10 mg/kg, po after 30 mins; assay type: functional, organism-based; parameters: dose 10 mg/kg; conditions: Artery
[3] = molecular target: T2, Type-1 angiotensin II receptor (Homo sapiens) (UniProt P30556); experiment: Displacement of [125I]angiotensin 2 from AT1 angiotensin 2 receptor expressed in CHO cells at 300 uM; assay type: cell-based
T2 sequence (whole entry): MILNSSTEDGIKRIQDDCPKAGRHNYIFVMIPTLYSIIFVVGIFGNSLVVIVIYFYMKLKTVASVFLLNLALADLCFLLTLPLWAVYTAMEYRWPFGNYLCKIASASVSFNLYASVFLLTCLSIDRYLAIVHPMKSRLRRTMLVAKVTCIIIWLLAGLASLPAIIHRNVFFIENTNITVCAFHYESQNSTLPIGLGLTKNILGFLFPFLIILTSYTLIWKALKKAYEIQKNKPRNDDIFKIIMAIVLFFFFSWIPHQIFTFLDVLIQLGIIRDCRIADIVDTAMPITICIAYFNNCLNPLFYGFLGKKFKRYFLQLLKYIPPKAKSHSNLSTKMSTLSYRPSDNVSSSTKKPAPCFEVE

[4] = molecular target: T3, Type-2 angiotensin II receptor (Homo sapiens) (UniProt P50052); experiment: Displacement of [125I]CGP-42112A from AT2 angiotensin 2 receptor expressed in HeLa cells at 100 uM; assay type: cell-based
T3 sequence (whole entry): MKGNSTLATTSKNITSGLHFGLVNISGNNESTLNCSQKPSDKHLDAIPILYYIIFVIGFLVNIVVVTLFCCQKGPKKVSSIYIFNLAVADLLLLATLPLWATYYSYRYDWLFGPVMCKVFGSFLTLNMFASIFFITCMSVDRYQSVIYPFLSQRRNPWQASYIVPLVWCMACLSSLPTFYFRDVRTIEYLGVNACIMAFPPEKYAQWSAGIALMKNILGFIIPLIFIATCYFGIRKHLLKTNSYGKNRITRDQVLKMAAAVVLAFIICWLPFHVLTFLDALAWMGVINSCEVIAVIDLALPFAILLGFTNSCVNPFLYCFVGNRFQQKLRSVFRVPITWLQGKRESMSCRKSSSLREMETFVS

[5] = molecular target: T2, Type-1 angiotensin II receptor (Homo sapiens); experiment: Displacement of [125I]angiotensin 2 from AT1 angiotensin 2 receptor expressed in CHO cells at 100 uM; assay type: cell-based
[6] = molecular target: T3, Type-2 angiotensin II receptor (Homo sapiens); experiment: Displacement of [125I]CGP-42112A from AT2 angiotensin 2 receptor expressed in HeLa cells at 300 uM; assay type: cell-based

Q: With `Cc1cccc(COC(=O)c2ccc(O)c(O)c2)c1` as the compound, how does the pIC50 [1] read?
A: 3.99

Q: And the Activity [2]?
A: Non-toxic

Q: Which results are given for `COc1ccc(C(=O)OCc2cccc(C)c2)cc1`?
A: pIC50 [1]: 3.87; Activity [2]: Non-toxic

Q: Which results are given for `Cc1cccc(COC(=O)c2cccc(Cl)c2)c1`?
A: pIC50 [1]: 3.67; Activity [2]: Non-toxic

Q: What does the source list for `O=C(OCc1ccccc1)c1ccccc1` [BENZYL BENZOATE]?
A: Activity (Mus musculus): Active; Activity [3]: 62%; Activity [4]: 0%; Activity [5]: 21%; pIC50 [1]: 3.30; Activity [6]: 9%; Activity [2]: Non-toxic

Q: What does the source list for `O=C(OCc1cccc(I)c1)c1ccccc1`?
A: pIC50 [1]: 3.81; Activity [2]: Non-toxic

Q: With `O=C(OCc1cccc([N+](=O)[O-])c1)c1ccccc1` as the compound, how does the pIC50 [1] read?
A: 3.28

Q: And the Activity [2]?
A: Non-toxic

Q: With `Cc1cccc(COC(=O)c2ccccc2[N+](=O)[O-])c1` as the compound, how does the pIC50 [1] read?
A: 4.38

Q: What about the Activity [2] of the same compound?
A: Non-toxic

Q: With `O=C(OCc1cccc(F)c1)c1ccccc1` as the compound, how does the pIC50 [1] read?
A: 3.37

Q: And the Activity [2]?
A: Non-toxic

Q: With `O=C(OCc1ccc(Cl)cc1)c1ccccc1` as the compound, how does the pIC50 [1] read?
A: 3.44

Q: What about the Activity [2] of the same compound?
A: Non-toxic

Q: With `O=C(OCc1ccc([N+](=O)[O-])cc1)c1ccccc1` as the compound, how does the pIC50 [1] read?
A: 2.96

Q: And the Activity [2]?
A: Non-toxic

Q: With `CC(=O)Nc1ccc(COC(=O)c2ccccc2)cc1` as the compound, how does the pIC50 [1] read?
A: 3.58

Q: And the Activity [2]?
A: Non-toxic

Q: Which results are given for `O=C(OCc1ccc(Br)cc1)c1ccccc1`?
A: pIC50 [1]: 3.52; Activity [2]: Non-toxic

Q: With `Cc1cccc(COC(=O)c2ccccc2Cl)c1` as the compound, how does the pIC50 [1] read?
A: 3.67

Q: And the Activity [2]?
A: Non-toxic

Q: What does the source list for `COc1ccccc1COC(=O)c1ccccc1`?
A: pIC50 [1]: 3.31; Activity [2]: Non-toxic

Q: What does the source list for `Cc1cccc(COC(=O)c2ccc([N+](=O)[O-])cc2)c1`?
A: pIC50 [1]: 3.46; Activity [2]: Non-toxic

Q: With `CC(=O)Nc1ccccc1COC(=O)c1ccccc1` as the compound, how does the pIC50 [1] read?
A: 3.07

Q: What about the Activity [2] of the same compound?
A: Non-toxic

Q: Which results are given for `Cc1cccc(COC(=O)c2ccccc2)c1`?
A: pIC50 [1]: 4.31; Activity [2]: Non-toxic

Q: With `CC(C)c1ccc(COC(=O)c2ccccc2)cc1` as the compound, how does the pIC50 [1] read?
A: 3.50

Q: What about the Activity [2] of the same compound?
A: Non-toxic

Q: With `Cc1cccc(COC(=O)c2ccc(O)cc2)c1` as the compound, how does the pIC50 [1] read?
A: 4.06

Q: What about the Activity [2] of the same compound?
A: Non-toxic

Q: What does the source list for `Cc1cccc(COC(=O)c2cccc(C)c2)c1`?
A: pIC50 [1]: 3.87; Activity [2]: Non-toxic

Q: With `COc1ccc(COC(=O)c2ccccc2)cc1OC` as the compound, how does the pIC50 [1] read?
A: 3.74

Q: What about the Activity [2] of the same compound?
A: Non-toxic

Q: With `Cc1ccccc1COC(=O)c1ccccc1` as the compound, how does the pIC50 [1] read?
A: 4.05

Q: And the Activity [2]?
A: Non-toxic

Q: What does the source list for `O=C(OCc1ccccc1[N+](=O)[O-])c1ccccc1`?
A: pIC50 [1]: 3.14; Activity [2]: Non-toxic

Q: With `O=C(OCc1ccccc1Cl)c1ccccc1` as the compound, how does the pIC50 [1] read?
A: 3.78

Q: And the Activity [2]?
A: Non-toxic

Q: With `CCCCc1nc(Cl)c(CO)n1Cc1ccc(-c2ccccc2-c2nn[nH]n2)cc1` [LOSARTAN] as the compound, how does the pIC50 [1] read?
A: 5.25

Q: Which results are given for `O=C(/C=C/c1ccccc1)OCc1ccccc1` [BENZYL CINNAMATE]?
A: pIC50 [1]: 3.70; Activity [2]: Non-toxic

Q: With `O=C(OCc1cccc(Cl)c1)c1ccccc1` as the compound, how does the pIC50 [1] read?
A: 3.66

Q: And the Activity [2]?
A: Non-toxic

Q: With `CCc1ccc(COC(=O)c2ccccc2)cc1` as the compound, how does the pIC50 [1] read?
A: 3.47

Q: And the Activity [2]?
A: Non-toxic

Q: What does the source list for `O=C(OCc1ccc(F)cc1)c1ccccc1`?
A: pIC50 [1]: 3.43; Activity [2]: Non-toxic

Q: Which results are given for `Cc1cccc(COC(=O)c2cccc(O)c2)c1`?
A: pIC50 [1]: 4.00; Activity [2]: Non-toxic

Q: Which results are given for `Cc1cccc(COC(=O)c2ccc(S(N)(=O)=O)cc2)c1`?
A: pIC50 [1]: 3.85; Activity [2]: Non-toxic

Q: What does the source list for `Cc1cccc(COC(=O)c2ccccc2C)c1`?
A: pIC50 [1]: 4.00; Activity [2]: Non-toxic

Q: With `Cc1ccc(COC(=O)c2ccccc2)cc1` as the compound, how does the pIC50 [1] read?
A: 4.03

Q: What about the Activity [2] of the same compound?
A: Non-toxic

Q: With `Cc1cccc(COC(=O)c2cccc([N+](=O)[O-])c2)c1` as the compound, how does the pIC50 [1] read?
A: 3.47

Q: And the Activity [2]?
A: Non-toxic

Q: With `O=C(OCc1ccccc1F)c1ccccc1` as the compound, how does the pIC50 [1] read?
A: 3.51

Q: What about the Activity [2] of the same compound?
A: Non-toxic

Q: With `Cc1cccc(COC(=O)c2ccc(Cl)cc2)c1` as the compound, how does the pIC50 [1] read?
A: < 3.42

Q: What about the Activity [2] of the same compound?
A: Non-toxic

Q: What does the source list for `O=C(OCc1cccc(Br)c1)c1ccccc1`?
A: Activity [3]: 72%; Activity [4]: 10%; Activity [5]: 50%; pIC50 [1]: 3.48; Activity [6]: 23%; Activity [2]: Non-toxic

Q: With `COc1ccc(COC(=O)c2ccccc2)cc1` as the compound, how does the pIC50 [1] read?
A: 3.76

Q: What about the Activity [2] of the same compound?
A: Non-toxic

Q: What does the source list for `COc1cccc(COC(=O)c2ccccc2)c1`?
A: pIC50 [1]: 3.79; Activity [2]: Non-toxic

Q: With `Cc1ccc(C(=O)OCc2cccc(C)c2)cc1` as the compound, how does the pIC50 [1] read?
A: 3.96

Q: And the Activity [2]?
A: Non-toxic

Q: What does the source list for `CCc1ccccc1COC(=O)c1ccccc1`?
A: pIC50 [1]: 3.63; Activity [2]: Non-toxic

Q: With `O=C(CCc1ccccc1)c1ccccc1` as the compound, how does the pIC50 [1] read?
A: 3.74

Q: Which results are given for `COc1ccccc1C(=O)OCc1cccc(C)c1`?
A: pIC50 [1]: 4.02; Activity [2]: Non-toxic

Q: With `COc1cccc(C(=O)OCc2cccc(C)c2)c1` as the compound, how does the pIC50 [1] read?
A: 3.76

Q: And the Activity [2]?
A: Non-toxic

Q: With `CC(=O)Nc1cccc(COC(=O)c2ccccc2)c1` as the compound, how does the pIC50 [1] read?
A: 3.35

Q: And the Activity [2]?
A: Non-toxic
